Measured values from ChEMBL document CHEMBL1124452, “New sensitizers for photodynamic therapy: controlled synthesis of purpurins and their effect on normal tissue” (1989).

Test system: Rattus norvegicus
Assay: In vivo cytotoxicity to the FANFT-induced urothelial cell carcinoma transplanted onto Fischer CDF (F344/CrlBR) rats (Tumoricidal activity)
Assay type: functional

Row | Structure (SMILES) | Therapeutic dose
1 | CCOC(=O)C1=Cc2c3nc(cc4nc(cc5[nH]c(cc6[nH]c2c(C)c6CC)c(C)c5CC)C(C)=C4CC)C(C)C13CC (configuration not stated) [ETIOPURPURIN] | 2.5 mg/kg
2 | CCOC(=O)C1=Cc2c3nc(cc4nc(cc5[nH]c(cc6[nH]c2c(CC)c6CC)c(CC)c5CC)C(CC)=C4CC)C(CC)C13CC (configuration not stated) [OCTAETHYLPURPURIN] | 5 mg/kg
